Molecular target: ATP-dependent translocase ABCB1 (Homo sapiens, UniProt P08183)
Test: TP_TRANSPORTER: transepithelial transport (basal to apical) in MDR1-expressing LLC-PK1 cells
Format: functional, cell-based
Conditions: pig

ATP-dependent translocase ABCB1, sequence (P08183 whole entry): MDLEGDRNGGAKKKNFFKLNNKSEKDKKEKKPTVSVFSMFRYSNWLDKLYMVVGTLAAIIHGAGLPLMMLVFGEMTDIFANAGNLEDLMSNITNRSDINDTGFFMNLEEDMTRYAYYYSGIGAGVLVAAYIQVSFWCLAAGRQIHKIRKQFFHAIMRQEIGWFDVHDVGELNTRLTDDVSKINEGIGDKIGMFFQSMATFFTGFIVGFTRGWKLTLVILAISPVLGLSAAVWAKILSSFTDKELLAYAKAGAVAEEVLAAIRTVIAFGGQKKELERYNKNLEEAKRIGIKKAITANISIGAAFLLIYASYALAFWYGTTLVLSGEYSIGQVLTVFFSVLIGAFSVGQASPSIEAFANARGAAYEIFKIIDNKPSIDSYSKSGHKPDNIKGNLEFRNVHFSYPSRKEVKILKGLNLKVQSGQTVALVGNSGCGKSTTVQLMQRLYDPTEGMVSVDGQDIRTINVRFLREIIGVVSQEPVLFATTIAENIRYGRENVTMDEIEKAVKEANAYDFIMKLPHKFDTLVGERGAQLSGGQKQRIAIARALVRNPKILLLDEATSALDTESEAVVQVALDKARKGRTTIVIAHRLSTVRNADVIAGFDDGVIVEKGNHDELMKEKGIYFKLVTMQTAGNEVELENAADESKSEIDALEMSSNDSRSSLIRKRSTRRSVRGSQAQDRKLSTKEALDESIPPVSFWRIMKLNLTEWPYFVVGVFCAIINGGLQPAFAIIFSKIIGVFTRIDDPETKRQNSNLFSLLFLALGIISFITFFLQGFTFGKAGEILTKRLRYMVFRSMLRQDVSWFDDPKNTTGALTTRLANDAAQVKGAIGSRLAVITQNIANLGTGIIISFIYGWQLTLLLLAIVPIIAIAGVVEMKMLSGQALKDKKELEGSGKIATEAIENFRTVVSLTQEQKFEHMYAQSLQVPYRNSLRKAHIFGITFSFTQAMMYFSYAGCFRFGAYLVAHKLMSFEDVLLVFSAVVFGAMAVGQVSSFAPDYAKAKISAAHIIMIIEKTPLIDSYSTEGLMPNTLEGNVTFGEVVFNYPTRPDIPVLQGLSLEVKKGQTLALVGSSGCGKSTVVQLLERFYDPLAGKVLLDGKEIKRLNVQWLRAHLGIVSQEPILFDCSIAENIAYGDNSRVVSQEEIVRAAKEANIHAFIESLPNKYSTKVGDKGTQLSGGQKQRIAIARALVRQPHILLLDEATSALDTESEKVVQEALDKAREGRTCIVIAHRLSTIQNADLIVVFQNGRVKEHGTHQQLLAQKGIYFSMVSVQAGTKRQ

With `C[C@]12CCC(=O)C=C1CC[C@@H]1[C@@H]2CC[C@@]2(C)[C@H]1CC[C@]2(O)C(=O)CO` [CORTODOXONE] the Activity was “is not a substrate [-]”.

— ChEMBL document CHEMBL2073785, “The role of the efflux transporter P-glycoprotein in brain penetration of prednisolone” (J Endocrinol, 2002)
